Laboratory results from PubChem BioAssay AID720570 (Broad Institute, 2013).
Active and inactive are the calls of the source.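 The calls were made as follows: active = cell-killing curve crosses a set limit at a concentration no more than twice the top valid dose; inconclusive = flat curve with a 30 to 70% loss, or a poor fit; inactive = signal rising instead of falling, and the rest.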

What was measured:
[1] = cytotoxicity in EWS/Fli1-dependent TC71 cells – cell-based, luminescence, cherry-picked samples, retest, confirmation (AID 720570); details: TC71 Ewing sarcoma viability, CellTiter-Glo ATP, 72 h
[2] = tested on: TC71 Ewing sarcoma viability, CellTiter-Glo ATP, 72 h; assay: as above

Structure (SMILES)	activity change, negative = cytotoxicity ([1]; at 26 µM (top of the series))	further results
N/C(Cc1nc(-c2ccc(F)cc2)cs1)=N\O	11.6% (inactive)	
Cc1cc2sc3ccc(C#CC4(O)CCCCC4)cc3c(=O)c2cc1C	23.5% (inactive)	
CCOc1ccc(-c2noc(CCC(=O)O)n2)cc1	14.8% (inactive)	
C[C@@H]1CN([C@@H](C)CO)S(=O)(=O)c2ccc(C#Cc3ccncc3)cc2O[C@H]1CN(C)C(=O)C1CCOCC1	-5.87% (inactive)	
COCc1cc(C)nc2sc(C(=O)NCCO)c(-n3cccc3)c12	3.9% (inactive)	
CCOC(=O)c1c(-c2ccc(C)cc2)csc1NC(=O)CCN1CCOCC1	13.3% (inactive)	
Cc1ccsc1C(=O)OCC(=O)c1cc(C)n(C)c1C	15.6% (inactive)	
O=C1Nc2ccccc2C1=Nc1ccccc1-c1ccccc1	11.4% (inactive)	
O=C(NCCc1ccccc1)c1ccccc1NC(=O)C1CCCO1 (stereo unspecified)	-0.496% (inactive)	
Cc1ccc(NC(=O)CCN2CCCCC2)cc1	3.68% (inactive)	
Cc1ccc(Cl)cc1NC(=O)Cn1cc(C(F)(F)F)cc(Cl)c1=O	2.53% (inactive)	
CC(C)NC(=O)N(C)C[C@@H]1Oc2cc(C#Cc3ccc(F)cc3)ccc2S(=O)(=O)N([C@H](C)CO)C[C@H]1C	4.97% (inactive)	
COC(=O)C[C@@H]1CC[C@@H]2[C@@H](COc3ccc(NC(=O)Nc4cccc(F)c4)cc3C(=O)N2C)O1	5.61% (inactive)	
O=C(CN1C(=O)c2ccccc2S1(=O)=O)c1ccc(F)cc1	12.8% (inactive)	
CC(=O)Nc1cc(C(=O)NCc2ccco2)ccc1Sc1ccc(F)cc1	-1.03% (inactive)	
COC(=O)C[C@H]1C=C[C@@H](NC(=O)Nc2ccc(C(F)(F)F)cc2)[C@H](CO)O1	9.61% (inactive)	
C[C@@H]1CN([C@H](C)CO)S(=O)(=O)c2ccc(C#Cc3ccncc3)cc2O[C@@H]1CN(C)C(=O)Nc1ccc2c(c1)OCO2	-0.54% (inactive)	
CC1=NN(c2ccccc2)C(=O)/C1=C\C=C\c1ccccc1	22.9% (inactive)	
O=C(COC(=O)c1ccc[nH]c1=O)Nc1ccc(N2CCCCC2)cc1	6.54% (inactive)	

Structure (SMILES)	activity change, negative = cytotoxicity ([1]; at 26 µM (top of the series))	further results
COC(=O)C[C@H]1CC[C@@H](NC(=O)Nc2ccc(C(F)(F)F)cc2)[C@H](CO)O1	-8.02% (inactive)	
COc1ccc(CN(C)C[C@H]2Oc3ccc(NC(=O)CCCCCC(=O)Nc4ccccc4N)cc3CC(=O)N([C@H](C)CO)C[C@H]2C)cc1		activity change, negative = cytotoxicity ([1]; at 21 µM (top of the series)): -5.04% (inactive)
C[C@@H]1CN([C@H](C)CO)C(=O)c2cc(C#CCc3ccccc3)cnc2O[C@@H]1CN(C)Cc1cccc(F)c1	-4.64% (inactive)	
C[C@@H]1CN([C@H](C)CO)C(=O)c2cc(NC(=O)CCCCCC(=O)Nc3ccccc3N)ccc2O[C@H]1CN(C)S(=O)(=O)c1ccc(Cl)cc1	-12.6% (inactive)	
COc1cc(/C=N/NS(=O)(=O)c2ccc(C)cc2)ccc1OCc1cccc(C(=O)O)c1	-3.76% (inactive)	
C=CC[n+]1c(-c2ccc(C)cc2)csc1Nc1ccc(NC(C)=O)cc1	0.856% (inactive)	
COC(=O)C[C@@H]1CC[C@@H]2[C@@H](COc3ccc(NC(=O)Nc4ccc(C#N)cc4)cc3C(=O)N2C)O1	15% (inactive)	
O=C(Nc1ccc(OC(=O)N2CCCCC2)cc1)N1CCOCC1	2.31% (inactive)	
CC(C)c1ccc(OCc2cccc(C(=O)N/N=C/c3cccnc3)c2)cc1	0.747% (inactive)	
O=C(/C=C/c1ccc(Cl)cc1Cl)N(Cc1ccc(Cl)cc1)C1CCS(=O)(=O)C1 (stereo unspecified)	11.6% (inactive)	
O=C(C[C@@H]1CC[C@@H]2[C@H](COC[C@@H](O)CN2S(=O)(=O)c2ccc(F)cc2)O1)NCc1ccc(Cl)c(Cl)c1	-10.7% (inactive)	
CCCn1nnc(NC(=S)NC(=O)C(C)(C)C)n1	17.3% (inactive)	
CCCCNC(=O)C(c1ccc(OCC(=O)OC)c(C(=O)OC)c1)N(CCOC)C(=O)CCCCCN1C(=O)NC(c2ccc(-c3ccccc3)cc2)C(C(=O)OCc2ccccc2)=C1C (stereo unspecified)	19.3% (inactive)	
CCCc1nc2ccc(NC(=O)c3cccs3)cc2c(=O)n1Cc1ccccc1Cl	2.97% (inactive)	
COc1ccc(NC(=O)c2cc3ccccc3oc2=O)cc1	7.98% (inactive)	
COc1ccc(C/C(N)=N/OC(C)=O)cc1OC	9.15% (inactive)	
COC(=O)C[C@H]1CC[C@H]2[C@H](COc3ccc(NC(=O)Nc4cccc(Cl)c4)cc3C(=O)N2C)O1	-2.79% (inactive)	
COC(=O)C[C@@H]1CC[C@@H]2[C@@H](COc3ccc(NC(=O)Nc4cccc(Cl)c4)cc3C(=O)N2C)O1		activity change, negative = cytotoxicity ([1]; at 23.5 µM (top of the series)): -4.34% (inactive)
CC(=O)c1ccc(N=C2C(=O)Nc3ccccc32)cc1	-7.15% (inactive)	

Structure (SMILES)	activity change, negative = cytotoxicity ([1]; at 26 µM (top of the series))	further results
Nc1ccc(Oc2cccc(Oc3ccc(N)cc3)c2)cc1	-7.72% (inactive)	
COC(=O)C[C@@H]1CC[C@@H]2[C@H](COc3ccc(NC(=O)Nc4cccc(Cl)c4)cc3C(=O)N2C)O1	-5.82% (inactive)	
COC(=O)C[C@@H]1CC[C@@H]2[C@@H](COc3ccc(NC(=O)Cc4cccs4)cc3C(=O)N2C)O1	14.1% (inactive)	
C[C@@H]1CCCCO[C@H](CN(C)Cc2ccc(C(F)(F)F)cc2)[C@H](C)CN([C@H](C)CO)C(=O)c2cc(NC(=O)CCCN(C)C)ccc2O1	-2.5% (inactive)	
CC(=NNc1ccc2ccccc2n1)c1ccccc1O	-20.9% (inactive)	
COc1ccccc1CNC(=O)C[C@@H]1CC[C@H]2[C@@H](COC[C@H](O)CN2C(=O)Nc2ccc(C(F)(F)F)cc2)O1	-18.3% (inactive)	
Cc1ccc(/C=C2\SC(=S)N(CCC(=O)NNC(=O)c3ccccc3O)C2=O)cc1	-7.03% (inactive)	
Cc1noc(C)c1NC(=O)Nc1ccc2c(c1)CC(=O)N([C@H](C)CO)C[C@@H](C)[C@@H](CN(C)Cc1ccc(Cl)c(Cl)c1)O2	0.509% (inactive)	
Cc1c(Cl)cnc(NC(=O)COC(=O)c2ccc3ncsc3c2)c1Cl	5.39% (inactive)	
CCCCCCCN(c1ccccc1)[C@@H]1C[C@H]2CCCC(=O)N3CC[C@@H](C1)[C@@H]23		AC35 [2]: 1.95 µM
COc1ccc(CC(N)c2csc(NC(=O)Nc3cccc(C(F)(F)F)c3)n2)cc1 (stereo unspecified)		AC35 [2]: 19.1 µM
Nc1ccc(Cn2ccc3c4c(N)nc(N)nc4ccc32)cc1		AC35 [2]: 0.0342 µM
COc1cccc(-c2cc(NC=O)c3ncc(-c4ccc(C(C)=O)cc4)n3c2)c1		AC35 [2]: 1.78 µM
Oc1cccc(-c2nnc(-c3cccc(O)c3)nn2)c1		AC35 [2]: 21.3 µM
C[C@@H]1CN([C@@H](C)CO)C(=O)c2cccc(NS(=O)(=O)c3ccc(F)cc3)c2O[C@@H]1CN(C)Cc1ccc(C(=O)Nc2ccccc2N)cc1		AC35 [2]: 8.22 µM
O=C1c2ccccc2C(=O)N1CCCCNc1ccccc1		AC35 [2]: 5.25 µM
C[C@@H]1CN([C@H](C)CO)C(=O)Cc2cc(NC(=O)CCCCCC(=O)Nc3ccccc3N)ccc2O[C@@H]1CN(C)CC1CCCCC1		AC35 [2]: 16.9 µM
COc1cc(-c2cnc3c(NC=O)cc(-c4cccc(NC(C)=O)c4)cn23)cc(OC)c1OC		AC35 [2]: 0.385 µM
